This note sets out measurements from patent US20260166159A1, “KRAS G12D DEGRADATION AGENT, AND PREPARATION METHOD AND USE THEREFOR” (LEADINGTAC PHARMACEUTICAL (SHAOXING) CO., LTD., priority 2022, published 2026).

Format in all cases: cell-based
In experiment [1] the test system is KRAS G12D mutant human pancreatic cancer cell Panc 04.03. In words: 3D cell proliferation inhibition assay, Panc 04.03. The settings on record: 168 h, Panc 04.03, 7 days, CTG, numeric values. The text has this: (§1) The inhibitory effects of the compounds on 3D cell proliferation were investigated on KRAS G12D mutant human lung cancer cell A427, KRAS G12D mutant human gastric cancer cell AGS, KRAS G12D mutant human metastatic pancreatic cancer cell AsPc-1, KRAS G12D mutant human pancreatic cancer cell Panc 04.03, KRAS G12D mutant human pancreatic cancer cell HPAC, KRAS G12V mutant human lung squamous cell carcinoma cell SW900, and KRAS WT human gastric cancer cell MKN1. The specific procedures were as follows:
(§2) 10 μL of each compound solution diluted in a gradient was added to corresponding wells of a 96-well low-adsorption microplate (PerkinElmer), so that the final concentrations of the test compounds in the reaction system were in a range of 10000-0.026 nM. The final concentration of DMSO was 0.2%. Then 90 µL of cells were correspondingly seeded into each well to achieve a cell density of 5×10^2 cells/well (the cell density of SW900 was 5×10^1 cells/well, and the cell density of MKN1 was 1×10^3 cells/well). In addition to test wells for the test compounds, both a DMSO control well and a medium control well were set, with the DMSO control well containing DMSO and cells and the medium well containing only a medium. After the sample loading, the 96-well low-adsorption microplate was incubated in an incubator at 37° C. with 5% carbon dioxide for 7 days. After 7 days, the microplate was taken out, and 100 μL of CTG reagent (Promega) was added to each well. The plate was incubated at room temperature for 60 min and read on a microplate reader EnVision by the chemiluminescence program. The inhibition rates of the compounds at each concentration were calculated using the formula for the percentage inhibition of cell proliferation: inhibition rate %=(mean value of DMSO control group−single concentration reading value of compound)/(mean value of DMSO control group−mean value of medium control group)×100. Then non-linear curve fittings for logarithmic concentration-inhibition rate were performed by GraphPad Prism 8, and the IC50 values of the compounds were obtained (Table 5).

The next experiment deals with T1, KRAS-G12D (Homo sapiens, UniProt P01116, G12D).
T1 construct: endogenous in cells; host or cells: A-427 (ATCC), AGS, AsPc-1, Panc 04.03
T1 sequence (P01116 1-188 isoform P01116-2 G12D): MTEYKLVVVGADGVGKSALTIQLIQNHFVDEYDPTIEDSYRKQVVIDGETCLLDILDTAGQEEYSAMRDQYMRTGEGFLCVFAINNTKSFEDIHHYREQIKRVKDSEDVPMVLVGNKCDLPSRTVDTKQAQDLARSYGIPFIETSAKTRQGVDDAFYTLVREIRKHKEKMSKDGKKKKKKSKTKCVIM
The experiment can be described thus: KRAS-G12D degradation assay (Western Blot), AsPc-1 cells. Conditions: for DC50: 24 h; for Dmax: ASPC1, 24 h. Here is the method:
The degradation effects of the compounds on KRAS-G12D were investigated on KRAS G12D mutant human lung cancer cell A-427 (ATCC), KRAS G12D mutant human gastric cancer cell AGS, KRAS G12D mutant human metastatic pancreatic cancer cell AsPc-1, and KRAS G12D mutant human pancreatic adenocarcinoma cell Panc 04.03. The specific procedures were as follows: 0.95 mL of cells were seeded into each well of a 24-well cell culture plate to achieve a cell density of 5×10^5 cells/well; and the cell plate was incubated in an incubator at 37° C. with 5% CO2 overnight. Then 50 μL of the compound solution after dilution was added to each of the wells with the corresponding cells, so that the final concentration of the compound was in a range of 0.03-3000 nM. The final concentration of DMSO was 0.25%. After the compounds were added, the cell plate was incubated in the incubator at 37° C. with 5% CO2 for 24 h. The culture medium in the 24-well cell culture plate was removed, and the plate was washed twice with 1×PBS (KeyGEN). 120 μL of RIPA (strong) lysis buffer (Beyotime) supplemented with 1 mM phenylmethylsulfonyl fluoride, a protease inhibitor mixture (Beyotime), and a protease phosphatase inhibitor mixture (Beyotime) was added to lyse adherent A-427 cells at the bottom of the cell culture plate. After the plate was left to stand on ice for 30 min, the protein lysate in each well was transferred to a 1.5 mL centrifuge tube and centrifuged at 15000 g for 20 min at 4° C. The cell lysate supernatants after centrifugation were cryopreserved in a refrigerator at −80° C. for later use.
After the samples of the cell lysate supernatants that had been prepared were thawed from the refrigerator at −80° C., the total protein concentrations of the cell lysates were determined using a BCA protein quantification kit (Tiangen). The total protein concentrations of the samples were then adjusted to 0.5 μg/μL with PBS and 5×SDS-PAGE protein loading buffer (Beyotime), and the samples were incubated in a water bath at 100° C. for 15 min. The samples were then incubated in an ice bath for 5 min and centrifuged at 14000 g for 1 min at 4° C., and the supernatants were mixed well as loading samples for the Western Blot assay. The samples were loaded into wells of a 10% precast gel (KeyGEN) with a loading volume of 10 μL (total protein: 5 μg), a sufficient Tris-MOPS-SDS running buffer (Adamas) was added, and then electrophoresis was performed at a constant voltage of 120 V for 55 min. After the electrophoresis, the proteins on the gel were transferred to PVDF membranes at a constant current of 250 mA for 55 min. After the membrane transfer, the PVDF membranes were incubated in 1× Quick Block blocking buffer (Beyotime) at room temperature for 30 min. After the blocking, the PVDF membranes were separately incubated at 4° C. overnight with the KRAS antibody (Abcam) diluted in a ratio of 1:1000 and the […] antibody (Abcam) diluted in a ratio of 1:2000 in 5% BSA as the diluent, and then washed with 1×TBST buffer (2.4 g of Tris, 8.8 g of NaCl, 1.5 mL of Tween 20, with pH adjusted to 7.4, with the volume brought to 1 L) 3 times for 10 min/time. The membranes were incubated with a secondary antibody (Abcam) diluted in 5% BSA at room temperature for 2 h, and then washed with 1×TBST buffer 3 times for 10 min/time. Finally, the membranes were incubated with Clarity Western ECL Substrate (BIO-RAD) for 5 min for luminescence and color development, and a ChemiScope 6200 Touch chemiluminescence imaging system (Clinx) was used for color development and protein mapping. Gray value analysis of the protein maps was performed using the chemiluminescence analysis software (Clinx). The gray correction value for each sample was calculated using the formula: gray correction value=(gray value of target protein/gray value of corresponding internal reference)×10^3. Then degradation rates were calculated by comparison with the gray correction value of the control group. […]
Background: Immunoblotting shows a protein as a band on a membrane.

Experiment [2] deals with KRAS G12D mutant human metastatic pancreatic cancer cell AsPc-1. The experiment can be described thus: 3D cell proliferation inhibition assay, AsPc-1. Conditions: ASPC1, 168 h, AsPc-1, 7 days, CTG, numeric values.
Text: as §1, §2

Experiment [3] relates to KRAS G12D mutant human pancreatic cancer cell HPAC. In words: 3D cell proliferation inhibition assay, HPAC. The settings on record: 168 h, 7 days, CTG.
Text: as §1, §2

Experiment [4] deals with KRAS G12D mutant human gastric cancer cell AGS. The experiment can be described thus: 3D cell proliferation inhibition assay, AGS. The settings on record: 168 h, 7 days, CTG, numeric values. In a few lines:
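Cells seeded at 5×10^2 per well in low-adsorption plates with compounds at 10000–0.026 nM final (0.2% DMSO) and grown 7 days at 37 °C, 5% CO2. Viability by CellTiter-Glo luminescence after 60 min at room temperature; inhibition normalized to DMSO and medium-only controls, IC50 from nonlinear log-concentration fit.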

By IC50 is commonly meant the concentration at which inhibition is half-maximal. A low value points to greater potency. By DC50 is commonly meant the concentration giving 50% degradation. In general, Dmax refers to the greatest extent of degradation seen. A high value points to deep degradation. As to `C#Cc1c(F)ccc2cc(O)cc(-c3ccc4c(N5CC6CCC(C5)N6)nc(OC[C@H](C)CN5CCN(CC6CCC7(CC6)CCN(C(=O)c6ccc(C)c(N8CCC(=O)NC8=O)c6)CC7)CC5)nc4c3F)c12` [Example 251, 1-(5-(9-((4-((R)-3-((4-(3,8-diazabicyclo[3.2.1]octan-3-yl)-7-(8-ethynyl-7-fluoro-3-hydroxynaphthalen-1-yl)-8-fluoroquinazolin-2-yl)oxy)-2-methylpropyl)piperazin-1-yl)methyl)-3-azaspiro[5.5]undecane-3-carbonyl)-2-methylphenyl)dihydropyrimidine-2,4(1H,3H)-dione], the values for the IC50 in experiment [1], in experiment [2] and in experiment [3] were 22.4 nM, 14.3 nM and 40.2 nM, respectively. Also, at KRAS-G12D, the DC50 came out at 8.72 nM. Besides, the Dmax on KRAS-G12D was 99.1%.

Turning to `C#Cc1c(F)ccc2cc(O)cc(-c3ncc4c(N5CC6CCC(C5)N6)nc(OC[C@H](C)CN5CCN(CC6CCC7(CC6)CCN(C(=O)c6cc(N8CCC(=O)NC8=O)c(C)cc6F)CC7)CC5)nc4c3F)c12` [Example 173, 1-(5-(9-((4-((R)-3-((4-(3,8-diazabicyclo[3.2.1]octan-3-yl)-7-(8-ethynyl-7-fluoro-3-hydroxynaphthalen-1-yl)-8-fluoropyrido[4,3-d]pyrimidin-2-yl)oxy)-2-methylpropyl)piperazin-1-yl)methyl)-3-azaspiro[5.5]undecane-3-carbonyl)-4-fluoro-2-methylphenyl)dihydropyrimidine-2,4(1H,3H)-dione], the concentration for half-maximal inhibition (IC50) amounted to 4.22 nM in experiment [4], 5.88 nM in experiment [1], 1.51 nM in experiment [2] and 3.8 nM in experiment [3]. In addition, the DC50 on KRAS-G12D came out at 2.42 nM. This molecule also yielded a Dmax on KRAS-G12D of 99%.

Regarding `C#Cc1c(F)ccc2cc(O)cc(-c3ncc4c(N5CC6CCC(C5)N6)nc(OCC5(CN6CCN(CC7CCC8(CCN(C(=O)c9ccc(C)c(N%10CCC(=O)NC%10=O)c9)CC8)CO7)CC6)CC5)nc4c3F)c12` (centres unmarked) [Example 106, 1-(5-(3-((4-((1-(((4-(3,8-diazabicyclo[3.2.1]octan-3-yl)-7-(8-ethynyl-7-fluoro-3-hydroxynaphthalen-1-yl)-8-fluoropyrido[4,3-d]pyrimidin-2-yl)oxy)methyl)cyclopropyl)methyl)piperazin-1-yl)methyl)-2-oxa-9-azaspiro[5.5]undecane-9-carbonyl)-2-methylphenyl)dihydropyrimidine-2,4(1H,3H)-dione], the IC50 was found to be 13.4 nM in experiment [4], 63.5 nM in experiment [1], 30.8 nM in experiment [2] and 152 nM in experiment [3]. Besides, the DC50 at KRAS-G12D was 10.5 nM. The same molecule had a Dmax at KRAS-G12D of 99.5%.

In the case of `C#Cc1c(F)ccc2cc(O)cc(-c3ncc4c(N5CC6CCC(C5)N6)nc(OCC5(CN6CCN(CC7CCC8(CC7)CCN(C(=O)c7cc(N9CCC(=O)NC9=O)c(C)cc7F)CC8)CC6)CC5)nc4c3F)c12` [Example 104, 1-(5-(9-((4-((1-(((4-(3,8-diazabicyclo[3.2.1]octan-3-yl)-7-(8-ethynyl-7-fluoro-3-hydroxynaphthalen-1-yl)-8-fluoropyrido[4,3-d]pyrimidin-2-yl)oxy)methyl)cyclopropyl)methyl)piperazin-1-yl)methyl)-3-azaspiro[5.5]undecane-3-carbonyl)-4-fluoro-2-methylphenyl)dihydropyrimidine-2,4(1H,3H)-dione], the IC50 in experiment [4] is 2.49 nM; in experiment [1] it was 31.3 nM; in experiment [2], 1.83 nM; in experiment [3], 5.32 nM.

Turning to `C#Cc1c(F)ccc2cc(O)cc(-c3ncc4c(N5CC6CCC(C5)N6)nc(OCC5(CN6CCN(CC7CCC8(CCN(C(=O)c9ccc(C)c(N%10CCC(=O)NC%10=O)c9)CC8)OC7)CC6)CC5)nc4c3F)c12` (centres unmarked) [Example 151, 1-(5-(3-((4-((1-(((4-(3,8-diazabicyclo[3.2.1]octan-3-yl)-7-(8-ethynyl-7-fluoro-3-hydroxynaphthalen-1-yl)-8-fluoropyrido[4,3-d]pyrimidin-2-yl)oxy)methyl)cyclopropyl)methyl)piperazin-1-yl)methyl)-1-oxa-9-azaspiro[5.5]undecane-9-carbonyl)-2-methylphenyl)dihydropyrimidine-2,4(1H,3H)-dione], the IC50 in experiment [4] is 6.82 nM; in experiment [1], 23.1 nM; in experiment [2] it was 3.86 nM; in experiment [3] it was 6.92 nM.

Consider `[2H]C([2H])([2H])c1ccc(C(=O)N2CCC3(CCC(CN4CCN(CC5(COc6nc(N7CC8CCC(C7)N8)c7cnc(-c8cc(O)cc9ccc(F)c(C#C)c89)c(F)c7n6)CC5)CC4)CC3)CC2)cc1N1CCC(=O)NC1=O` [Example 103, 1-(5-(9-((4-((1-(((4-(3,8-diazabicyclo[3.2.1]octan-3-yl)-7-(8-ethynyl-7-fluoro-3-hydroxynaphthalen-1-yl)-8-fluoropyrido[4,3-d]pyrimidin-2-yl)oxy)methyl)cyclopropyl)methyl)piperazin-1-yl)methyl)-3-azaspiro[5.5]undecane-3-carbonyl)-2-(methyl-d3)phenyl)dihydropyrimidine-2,4(1H,3H)-dione], for which the IC50 in experiment [4] was 4.35 nM; in experiment [1], 16.8 nM; in experiment [2], 1.41 nM; in experiment [3] it was 1.58 nM.
